Test results as given in publication PMC9351623 (Chem, 2022).
One block for each compound: values may come before it.

What was measured:
[1] = target: T1, TrxR1 (Homo sapiens, UniProt Q16881); assay: Cellular quantitative HTS; format: cell-based; conditions: for pIC50 comparison between the two vinylsulfones: despite ca. 1.1 LogP difference; for activity in the cellular RX1 screen: hits classed up to 20 μM
T1 sequence (Q16881 1-499 isoform Q16881-5): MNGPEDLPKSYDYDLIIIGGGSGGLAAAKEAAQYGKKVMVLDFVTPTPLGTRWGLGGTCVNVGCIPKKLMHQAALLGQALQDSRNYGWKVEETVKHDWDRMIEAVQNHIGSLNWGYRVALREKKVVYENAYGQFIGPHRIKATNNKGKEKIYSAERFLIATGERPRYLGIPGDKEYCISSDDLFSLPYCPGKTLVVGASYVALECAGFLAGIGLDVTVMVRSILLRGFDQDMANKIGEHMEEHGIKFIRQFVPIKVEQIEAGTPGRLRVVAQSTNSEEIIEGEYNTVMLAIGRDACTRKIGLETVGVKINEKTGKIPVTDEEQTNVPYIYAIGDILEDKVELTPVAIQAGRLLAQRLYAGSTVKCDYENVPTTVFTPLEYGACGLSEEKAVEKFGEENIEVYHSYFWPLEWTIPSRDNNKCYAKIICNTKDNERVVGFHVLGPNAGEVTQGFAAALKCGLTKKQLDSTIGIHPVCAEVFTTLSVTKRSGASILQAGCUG

[2] = target: T2, TrxR (Homo sapiens, UniProt Q16881); assay: Cellular probe signal after chemical inhibition of TrxR; format: cell-based
T2 sequence (Q16881 1-499 isoform Q16881-5): T1 sequence (Q16881 1-499 isoform Q16881-5)

[3] = target: T1, TrxR1; conditions: cited from earlier work

Compound: CC(C)(C)c1ccc(S(=O)(=O)/C=C/C#N)cc1 [BAY 11–7085]
pIC50 comparison between the two vinylsulfones [1]: no change

Compound: CN(N=O)c1cc(O)ccc1O [Dephostatin]
potency loss in cells (ratio of cell-free to cellular potency) ([1]; cellular RX1 qHTS versus cell-free qHTS of ref 67): > 10 fold

Compound: COc1ccc([N+](=O)[O-])c(S(=O)(=O)c2ccc(Cl)cc2)n1 [TRi-1]
effect of TrxR inhibitor on cellular RX1 signal [2]: efficiently suppressed

pIC50 comparison between the two vinylsulfones [1]: no change
Compound: Cc1ccc(S(=O)(=O)/C=C/C#N)cc1 [BAY 11–7082]

Compound: CC(=O)c1c(O)c(C)c(O)c(Cc2c(O)c3c(c(C(=O)/C=C/c4ccccc4)c2O)OC(C)(C)C=C3)c1O [rottlerin]
apparent potency relative to the reference inhibitor TRi-1 [1]: ≤ 3%

apparent potency relative to the reference inhibitor TRi-1 [1]: ≤ 3%
Compound: O=c1c(O)c(-c2cc(O)c(O)c(O)c2)oc2cc(O)cc(O)c12 [myricetin]

Compound: Oc1ccc2ccccc2c1SSc1c(O)ccc2ccccc12 [IPA-3]
activity in the cellular RX1 screen [1]: active | activity in the enzymatic (cell-free) TrxR screen [3]: inactivity

Compound: OC[C@H]1O[C@H]([S-])[C@H](O)[C@@H](O)[C@@H]1O.[Au+] [aurothioglucose]
pIC50 (potency) lower than its ester prodrug auranofin [1]: 10 fold

Compound: COC[C@H]1OC(=O)c2coc3c2[C@@]1(C)C1=C(C3=O)[C@@H]2CCC(=O)[C@@]2(C)C[C@H]1OC(C)=O [wortmannin]
activity in the cellular RX1 screen [1]: inactive | activity in the enzymatic (cell-free) TrxR screen [3]: activity

Compound: C=CCN1CCc2c(cc(O)c(O)c2Cl)C(c2ccccc2)C1 (centres unmarked) [chloro-APB]
activity in the cellular RX1 screen [1]: active | activity in the enzymatic (cell-free) TrxR screen [3]: inactivity

apparent potency relative to the reference inhibitor TRi-1 [1]: ≤ 3%
Compound: O=C1CSC(=S)N1 [rhodanine]
